According to patent US12252531B2, “Methods of screening for high-affinity, isoform-selective TGFβ1 inhibitors” (Scholar Rock, Inc., priority 2018, dated 2025):

Experiments:
[1] = Safety/toxicology study in rats; conditions: rat, in vivo
Text: Animals were sacrificed on Day 29 and necropsies performed.
Both halves were submitted for embedding.

[2] = system: TGFβ downstream tonic signaling; conditions: non-diseased rat BAL; cited from earlier work
[3] = system: intratumoral immune cells in MBT2 tumors; test: MBT2 tumor immune contexture (flow cytometry, IHC, qPCR); format: in vivo, mouse; conditions: MBT2 tumors (FIG. 30F)
Protocol: Each study group contained 12 mice with MBT2 tumors as described herein. Ab6-treatment group received the antibody weekly, on day 1 and day 8, at 10 mg/kg. Anti-PD1 treatment group was treated biweekly at 10 mg/kg per injection, on days 1, 4, 8 and 11, total of 20 mg/kg per week. […] On day 13, tumors were collected from the mice as shown above.
Flow cytometric analysis: Tumor-associated immune cell subsets were also analyzed by tumor flow cytometry in MBT-2 tumors. Briefly, tumors were excised and weighed prior to dissociation using the Tumor Dissociation Kit for gentleMACS (Miltenyi). Samples were filtered through a 70 μm cell strainer to remove any aggregates. […] Flow cytometry was performed on a Attune NxT (ThermoFisher) and analyzed with FlowJo (BD Bioscience).
For immunohistochemical analysis, tumors from six animals were cut in halves and fixed. […] FIG. 30E provides the quantitation of the IHC data, shown as % of CD8-positive cells of total nuclei. […]

| Molecule | bone findings [1] | incidence/severity of bone findings compared with pan-TGFβ antibody ([1]; po) | inhibition of TGFβ downstream tonic signaling [2] | phospho-SMAD3 staining near tumor vascular endothelium (IHC) [3] |
| --- | --- | --- | --- | --- |
| c1ccc(-c2nn3c(c2-c2ccnc4cc(OCCN5CCOCC5)ccc24)CCC3)nc1 [LY2109761] | macroscopic abnormally shaped sternum and microscopic increased thickness of the hypertrophic zone in the endplate of the sternum and physis of the femur and tibia | higher incidence and/or severity | shown to inhibit TGFβ downstream tonic signaling | – |
| Ab6-mIgG1: chimeric antibody with the human V domains of Ab6 fused to mouse IgG1/kappa constant domains (protein) heavy chain: EVQLVESGGGLVQPGGSLRLSCTASGFTFSSFSMDWVRQAPGKGLEWVSYISPSADTIYYADSVKGRFTISRDNAKNTLYLQMNSLRAEDTAVYYCARGVLDYGDMLMPWGQGTLVTVSS light chain: DIQMTQSPSSLSASVGDRVTITCQASQDITNYLNWYQQKPGKAPKLLIYDASNLETGVPSRFSGSGSGTDFTFTISSLQPEDIATYYCQQADNHPPWTFGGGTKVEIK | – | – | – | much diminished |
